Test results from patent US9266813B2, “Stilbenoid compound as inhibitor for squamous carcinoma and hepatoma and uses thereof” (AnnCare Bio-Tech Center Inc., priority 2013, dated 2016).
Values after ≈ are worked out from the molar mass of the structure shown. Read-outs that look alike come from different tables or passages of the source. Each block holds one molecule with its values, some of them ahead of it.

Key:
Water solubility assay = format: physicochemical; conditions: read-out: Water solubility, Content
Text: The water solubility of the compounds of the present invention can be determined by methods known in the art and the result is shown in Table 3.

Hep3B cells = assay: MTT assay, antiproliferation on Hep3B cells; format: cell-based; conditions: for IC50: Homo sapiens, Hep3B cells, MTT; for anticancer activity compared with resveratrol and pterostilbene: Hep 3B and CAR cells, Table 1
Procedure: (§1) Antiproliferations of compound 2-4 were determined by an improved MTT assay. The CAR cells were individually plated at a density of 2×10^4 cells/well onto 96-well plates and treated with Dimethyl sulfoxide (DMSO) alone (0.5% (v/v) in media served as a vehicle control) and various concentrations (0, 25, 50, 75 and 100 μM) of compound 2-4 for 24 and 48 hours. Following the above treatments, the supernatant was discarded before a 100 μL solution of MTT (500 μg/ml) was added to each well for 4 hours at 37 °C. After incubation, the medium was replaced by the addition of 200 μL DMSO to solubilize the violet formazan crystal produced from MTT. The absorbance of the dissolved formazan grained within the cells was measured at 570 nm by a microplate reader to calculate viability (data shown as % of control).
(§2) Please refer to Table 1. Hep3B cells and CAR cells were treated by different concentrations of the compounds of the invention for 48 and 72 hours, and the antiprolifieration effect of such compounds was evaluated using MTT assay. Data are presented as IC50 (μM), the concentration of 50% proliferation-inhibitory effect.
The anti-proliferative ability of compound 2-4 in hepatocellular carcinoma was evaluated in Hep3B cells using MTT assay. Hep3B cells were treated with various concentrations of compound 2-4 for 48 and 72 hours.

CAR cells = assay: MTT assay, antiproliferation on cisplatin-resistant head and neck squamous carcinoma (CAR) cells; format: cell-based, human; conditions: Homo sapiens, CAR cells, MTT
Procedure: The human head and neck carcinoma cell line CAL27 was obtained from American Tissue Culture Collection (ATCC). The cisplatin-resistant cell line CAR (CAL27-cisplatin resistance) was established by clonal selection of CAL27 using 10 cycles of 1 passage treatment with 10-80 μM of cisplatin (Sigma-Aldrich Corp. (St. Louis, Mo., USA) followed by a recovery period of another passage. CAR cells were cultivated in Dulbecco's modified Eagle's medium (DMEM) supplemented with 10% FBS, 100 μg/mL streptomycin, 100 U/mL penicillin G, 2 mM L-glutamine (Gibco by Life Technologies (Carlsbad, Calif., USA)) and 80 μM of cisplatin (Sigma-Aldrich Corp. (St. Louis, Mo., USA).
as §1, §2
MTT assay was utilized and CAR cells were treated with compound 2-4 in different concentration for 24, 48 and 72 hours. […] The IC50 after 72 hours of treatment was 50 μM.

[1] = dose up to 3.0 g/kg/day; cited from earlier work
[2] = 48 hours, read-out: Hep 3B (IC50 (μM)) 48 hours
[3] = 72 hours, read-out: Hep 3B (IC50 (μM)) 72 hours
[4] = 48 hours, read-out: CAR (IC50 (μM)) 48 hours
[5] = 72 hours, read-out: CAR (IC50 (μM)) 72 hours

SMILES: CC(CO)(CO)C(=O)Oc1ccc(/C=C/c2cc(O)cc(O)c2)cc1 [Compound 3-5]
solubility (Water solubility assay): 0.0529 mg/mL (≈ 154 µM) | IC50 (Hep3B cells; [2]): 144 µM | IC50 (Hep3B cells; [3]): 47.8 µM | IC50 (CAR cells; [4]): 169 µM | IC50 (CAR cells; [5]): 133 µM

SMILES: Oc1ccc(/C=C/c2cc(O)cc(O)c2)cc1 [Resveratrol, 3,5,4′-trihydroxy-trans-stilbene, reference compound]
solubility (Water solubility assay): 0.107 mg/mL (≈ 470 µM) | IC50 (Hep3B cells; [2]): 96.4 µM | IC50 (Hep3B cells; [3]): 51.6 µM | IC50 (CAR cells; [4]): 153 µM | IC50 (CAR cells; [5]): 88.3 µM

SMILES: COc1cc(/C=C/c2ccc(OC(=O)C(C)(CO)CO)cc2)cc(OC(=O)C(C)(CO)CO)c1 [Compound 8-3, 3-methyl-5,4′-[2,2-Bis(hydroxymethyl)propanoxy]-resveratrol]
solubility (Water solubility assay): > 1 mg/mL | IC50 (Hep3B cells; [2]): 106 µM | IC50 (Hep3B cells; [3]): 66.5 µM | IC50 (CAR cells; [4]): 56.5 µM | IC50 (CAR cells; [5]): 59.8 µM

SMILES: COc1cc(O)cc(/C=C/c2ccc(OC(=O)C(C)(CO)CO)cc2)c1 [Compound 11-3, 3-methyl-4′-[2,2-Bis(hydroxymethyl)propanoxy]-resveratrol]
solubility (Water solubility assay): 0.0358 mg/mL (≈ 99.9 µM) | anticancer activity compared with resveratrol and pterostilbene (Hep3B cells): more potent anticancer activity than resveratrol and pterostilbene | IC50 (Hep3B cells; [2]): 88.9 µM | IC50 (Hep3B cells; [3]): 33.2 µM | IC50 (CAR cells; [4]): 67.3 µM | IC50 (CAR cells; [5]): 64 µM

SMILES: CC(CO)(CO)C(=O)Oc1ccc(/C=C/c2cc(OC(=O)C(C)(CO)CO)cc(OC(=O)C(C)(CO)CO)c2)cc1 [Compound 4-3, 3,5,4′-[2,2-Bis(hydroxymethyl)propanoxy]-resveratrol]
solubility (Water solubility assay): 0.372 mg/mL (≈ 646 µM) | IC50 (Hep3B cells; [2]): 151 µM | IC50 (Hep3B cells; [3]): 95 µM | IC50 (CAR cells; [4]): 149 µM | IC50 (CAR cells; [5]): 124 µM

SMILES: CC(CO)(CO)C(=O)Oc1cc(/C=C/c2ccc(O)cc2)cc(OC(=O)C(C)(CO)CO)c1 [Compound 6-3, 3,5-[2,2-Bis(hydroxymethyl)propanoxy]-resveratrol]
solubility (Water solubility assay): 0.455 mg/mL (≈ 988 µM) | IC50 (Hep3B cells; [2]): 137 µM | IC50 (Hep3B cells; [3]): 55.3 µM | IC50 (CAR cells; [4]): 91.4 µM | IC50 (CAR cells; [5]): 77 µM

SMILES: COc1cc(/C=C/c2ccc(OC(=O)C3OC(C)(C)OC3C3COC(C)(C)O3)cc2)cc(OC)c1 [Compound 14-5, Pterostilbene D-Ribonic Acid Diacetonide]
solubility (Water solubility assay): < 0.01 mg/mL | IC50 (Hep3B cells; [2]): 94.7 µM | IC50 (Hep3B cells; [3]): 59.5 µM | IC50 (CAR cells; [4]): > 200 µM | IC50 (CAR cells; [5]): > 200 µM

SMILES: CC(=O)Oc1cc(/C=C/c2ccc(OC(=O)C(C)(CO)CO)cc2)cc(OC(C)=O)c1 [Compound 9-4, 3,5-acetyl-4′-[2,2-Bis(hydroxymethyl)propanoxy]-resveratrol]
solubility (Water solubility assay): 0.306 mg/mL (≈ 715 µM) | IC50 (Hep3B cells; [2]): 148 µM | IC50 (Hep3B cells; [3]): 62 µM | IC50 (CAR cells; [4]): 103 µM | IC50 (CAR cells; [5]): 116 µM

SMILES: CC(=O)Oc1cc(/C=C/c2ccc(OC(=O)C(C)(CO)CO)cc2)cc(OC(=O)C(C)(CO)CO)c1 [Compound 10-4, 3-acetyl-5,4′-[2,2-Bis(hydroxymethyl)propanoxy]-resveratrol]
solubility (Water solubility assay): > 1 mg/mL | IC50 (Hep3B cells; [2]): > 200 µM | IC50 (Hep3B cells; [3]): > 200 µM | IC50 (CAR cells; [4]): 122 µM | IC50 (CAR cells; [5]): 119 µM

Molecules with a lower IC50 (Hep3B cells; [2]), results first:

solubility (Water solubility assay): 0.0819 mg/mL (≈ 205 µM) | IC50 (Hep3B cells; [2]): 85.2 µM | IC50 (Hep3B cells; [3]): 36.8 µM | IC50 (CAR cells; [4]): 52 µM | IC50 (CAR cells; [5]): 50.3 µM
SMILES: COc1cc(/C=C/c2ccc(OC(=O)C(C)(CO)CO)cc2)cc(OC(C)=O)c1 [Compound 12-3, 5-acetyl-3-methyl-4′-[2,2-Bis(hydroxymethyl)propanoxy]-resveratrol]
anticancer activity compared with resveratrol and pterostilbene (Hep3B cells): more potent anticancer activity than resveratrol and pterostilbene

solubility (Water solubility assay): 0.41 mg/mL (≈ 1190 µM) | IC50 (Hep3B cells; [2]): 83.5 µM | IC50 (Hep3B cells; [3]): 68.9 µM | IC50 (CAR cells; [4]): 54.9 µM | IC50 (CAR cells; [5]): 113 µM
SMILES: CC(CO)(CO)C(=O)Oc1cc(O)cc(/C=C/c2ccc(O)cc2)c1 [Compound 5-3]

solubility (Water solubility assay): 0.048 mg/mL (≈ 187 µM) | IC50 (Hep3B cells; [2]): 75.3 µM | IC50 (Hep3B cells; [3]): 48.9 µM | IC50 (CAR cells; [4]): 100 µM | IC50 (CAR cells; [5]): 98.3 µM
SMILES: COc1cc(/C=C/c2ccc(O)cc2)cc(OC)c1 [Pterostilbene, reference compound]
28 days subchronic toxicity [1]: no significant adverse biochemical parameters and toxic effects were noted

solubility (Water solubility assay): 0.0534 mg/mL (≈ 143 µM) | IC50 (Hep3B cells; [2]): 70.8 µM | IC50 (Hep3B cells; [3]): 48.7 µM | IC50 (CAR cells; [4]): 64.2 µM | IC50 (CAR cells; [5]): 67.3 µM
SMILES: COc1ccc(/C=C/c2cc(OC)cc(OC(=O)C(C)(CO)CO)c2)cc1 [Compound 7-3, 3,4′methyl-5-[2,2-Bis(hydroxymethyl)propanoxy]-resveratrol]
anticancer activity compared with resveratrol and pterostilbene (Hep3B cells): more potent anticancer activity than resveratrol and pterostilbene

solubility (Water solubility assay): 0.136 mg/mL (≈ 295 µM) | IC50 (Hep3B cells; [2]): 54.2 µM | IC50 (Hep3B cells; [3]): 36.8 µM | IC50 (CAR cells; [4]): 105 µM | IC50 (CAR cells; [5]): 113 µM
SMILES: CC(CO)(CO)C(=O)Oc1ccc(/C=C/c2cc(O)cc(OC(=O)C(C)(CO)CO)c2)cc1 [Compound 3-6, 3,4′-[2,2-Bis(hydroxymethyl)propanoxy]-resveratrol]
anticancer activity compared with resveratrol and pterostilbene (Hep3B cells): more potent anticancer activity than resveratrol and pterostilbene

solubility (Water solubility assay): 0.337 mg/mL (≈ 710 µM) | IC50 (Hep3B cells; [2]): 53.4 µM | IC50 (Hep3B cells; [3]): 39.1 µM | IC50 (CAR cells; [4]): 73.9 µM | IC50 (CAR cells; [5]): 70.8 µM
SMILES: COc1ccc(/C=C/c2cc(OC(=O)C(C)(CO)CO)cc(OC(=O)C(C)(CO)CO)c2)cc1 [Compound 13-3, 3,5-[2,2-Bis(hydroxymethyl)propanoxy]-4′-methyl-resveratrol]
anticancer activity compared with resveratrol and pterostilbene (Hep3B cells): more potent anticancer activity than resveratrol and pterostilbene
